# ChEMBL document CHEMBL1150697, “Isolation and structure determination of an antimicrobial ester from a marine sediment-derived bacterium” (2003)
# How the values were obtained:
# Format in all cases: functional
# Details in all cases: read-out: IZ
# Priestia megaterium = experiment: Antimicrobial activity against Bacillus megaterium at 1000 ug/mL after 24 hrs by paper disk diffusion method
# Escherichia coli = experiment: Antimicrobial activity against Escherichia coli at 1000 ug/mL after 24 hrs by paper disk diffusion method
# Klebsiella pneumoniae = experiment: Antimicrobial activity against sKlebsiella pneumoniae at 1000 ug/mL after 24 hrs by paper disk diffusion method
# Saccharomyces cerevisiae = experiment: Antimicrobial activity against Saccharomyces cerevisiae at 1000 ug/mL after 24 hrs by paper disk diffusion method
# Alcaligenes faecalis = experiment: Antimicrobial activity against Alcaligenes faecalis at 1000 ug/mL after 24 hrs by paper disk diffusion method
# Staphylococcus aureus = experiment: Antimicrobial activity against Staphylococcus aureus at 1000 ug/mL after 24 hrs by paper disk diffusion method
# Micrococcus luteus = experiment: Antimicrobial activity against Micrococcus luteus at 1000 ug/mL after 24 hrs by paper disk diffusion method
structure (smiles),measurement,setting,value
CCC(O)CC1CCC(C(C)C(=O)OC(C)CC2CCC(C(C)C(=O)O)O2)O1 (configuration not stated) [BONACTIN],zone of inhibition at 1000 µg/mL,Priestia megaterium,8 mm
same,zone of inhibition at 1000 µg/mL,Escherichia coli,9 mm
same,zone of inhibition at 1000 µg/mL,Klebsiella pneumoniae,8.5 mm
same,zone of inhibition at 1000 µg/mL,Saccharomyces cerevisiae,7.5 mm
same,zone of inhibition at 1000 µg/mL,Alcaligenes faecalis,10 mm
same,zone of inhibition at 1000 µg/mL,Staphylococcus aureus,7 mm
same,zone of inhibition at 1000 µg/mL,Micrococcus luteus,8 mm
